SMILES strings stand for the structures.

Broadly, the EC50 is the concentration at which the effect is half-maximal.

The first assay concerns the target T1, human ferroportin (Homo sapiens, UniProt Q9NP59).
T1 construct: expressed in transfected cells
T1 sequence (Q9NP59 1-571): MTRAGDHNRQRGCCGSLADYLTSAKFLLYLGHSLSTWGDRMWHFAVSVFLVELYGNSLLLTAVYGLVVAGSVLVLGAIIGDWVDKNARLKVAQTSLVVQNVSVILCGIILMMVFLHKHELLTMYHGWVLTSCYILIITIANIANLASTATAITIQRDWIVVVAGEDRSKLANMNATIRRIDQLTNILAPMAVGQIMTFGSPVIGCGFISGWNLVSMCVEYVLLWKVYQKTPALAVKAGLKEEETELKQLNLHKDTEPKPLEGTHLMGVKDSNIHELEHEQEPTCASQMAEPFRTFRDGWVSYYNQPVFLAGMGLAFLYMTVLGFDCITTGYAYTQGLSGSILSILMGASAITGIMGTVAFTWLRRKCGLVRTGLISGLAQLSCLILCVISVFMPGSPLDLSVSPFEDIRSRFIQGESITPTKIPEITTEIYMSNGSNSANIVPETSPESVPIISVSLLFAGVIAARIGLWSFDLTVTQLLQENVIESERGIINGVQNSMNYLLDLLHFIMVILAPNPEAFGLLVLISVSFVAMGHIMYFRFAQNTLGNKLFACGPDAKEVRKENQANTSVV
The experiment in a line: Ferroportin internalization / degradation, HEK-GFP cell based assay (HEK293 cells stably expressing ferroportin-GFP, decrease in GFP fluorescence). Conditions: Table 3 monomer analogues; ferroportin-GFP HEK293 cells, 18-24 h incubation; read-out: HEK-GFP cell based assay (potency EC50). The protocol: Peptide analogues were tested in vitro for induction of internalization of the human ferroportin protein. Following internalization, the […] are degraded. The assay measures a decrease in fluorescence of the receptor.
The cDNA encoding the human ferroportin (SLC40A1) was cloned from a cDNA clone from Origene (NM_014585). The DNA encoding the ferroportin was amplified by PCR using primers also encoding terminal restriction sites for subcloning, but without the termination codon. The ferroportin receptor was subcloned into a mammalian GFP expression vector containing a neomycin (G418) resistance marker in such that the reading frame of the ferroportin was fused in frame with the GFP protein. The fidelity of the DNA encoding the protein was confirmed by DNA sequencing. HEK293 cells were used for transfection of the ferroportin-GFP receptor expression plasmid. The cells were grown according to standard protocol in growth medium and transfected with the plasmids using Lipofectamine (manufacturer's protocol, Invitrogen). […] The cells were propagated and frozen in aliquots.
Compound was added to desired final concentration for at least 18 hours in the incubator. […] Compound was added to desired final concentration for at least 18 hours but no more than 24 hours in the incubator.
The EC50 of these reference compounds for ferroportin degradation was determined according to the activity assay described above. These peptides served as control standards.
These values were determined as described herein.
In the case of `CC[C@H](C)[C@@H]1NC(=O)[C@@H](NC(=O)[C@@H]2CCCN2C(=O)[C@H](Cc2ccccc2)NC(=O)[C@H](Cc2c[nH]cn2)NC(=O)[C@@H](NC(=O)[C@H](CC(=O)O)NC(=O)CC(C)C)[C@@H](C)O)CSSC[C@@H](C(=O)N[C@@H](CCCCN)C(N)=O)NC(=O)CNC(=O)[C@H](CCCCN)NC(=O)[C@H](CO)NC(=O)[C@H](CCCNC(=N)N)NC(=O)[C@@H]2CCCN2C(=O)[C@H](CCCCNC(=O)CC[C@H](NC(=O)CC(C)C)C(=O)O)NC(=O)[C@H](Cc2ccccc2)NC(=O)[C@H](CCCCN)NC1=O` [Compound 15], the DC50 is 26 nM.

Regarding `CCCCCCCCCCCCCCCC(=O)NCCOCCOCCC(=O)NCCCC[C@@H]1NC(=O)[C@H](Cc2ccccc2)NC(=O)[C@H](CCCCN)NC(=O)[C@H]([C@@H](C)CC)NC(=O)[C@@H](NC(=O)[C@@H]2CCCN2C(=O)[C@H](Cc2ccccc2)NC(=O)[C@H](Cc2c[nH]cn2)NC(=O)[C@@H](NC(=O)[C@H](CC(=O)O)NC(=O)CC(C)C)[C@@H](C)O)CSSC[C@@H](C(=O)N[C@@H](CCCCN)C(N)=O)NC(=O)CNC(=O)[C@H](CCCCN)NC(=O)[C@H](CO)NC(=O)[C@H](CCCNC(=N)N)NC(=O)[C@@H]2CCCN2C1=O` [Compound 16], the DC50 was determined as 36 nM.

Take `CCCCCCCCCCCCCCCC(=O)NCCCC[C@@H]1NC(=O)[C@H](Cc2ccccc2)NC(=O)[C@H](CCCCN)NC(=O)[C@H]([C@@H](C)CC)NC(=O)[C@@H](NC(=O)[C@@H]2CCCN2C(=O)[C@H](Cc2ccccc2)NC(=O)[C@H](Cc2c[nH]cn2)NC(=O)[C@@H](NC(=O)[C@H](CC(=O)O)NC(=O)CC(C)C)[C@@H](C)O)CSSC[C@@H](C(=O)N[C@@H](CCCCN)C(N)=O)NC(=O)CNC(=O)[C@H](CCCCN)NC(=O)[C@H](CO)NC(=O)[C@H](CCCNC(=N)N)NC(=O)[C@@H]2CCCN2C1=O` [Compound 20]: the DC50 was 19 nM.

Take `CCCCCCCCCCCCCCCC(=O)NCCCCCC(=O)NCCCC[C@@H]1NC(=O)[C@H](Cc2ccccc2)NC(=O)[C@H](CCCCN)NC(=O)[C@H]([C@@H](C)CC)NC(=O)[C@@H](NC(=O)[C@@H]2CCCN2C(=O)[C@H](Cc2ccccc2)NC(=O)[C@H](Cc2c[nH]cn2)NC(=O)[C@@H](NC(=O)[C@H](CC(=O)O)NC(=O)CC(C)C)[C@@H](C)O)CSSC[C@@H](C(=O)N[C@@H](CCCCN)C(N)=O)NC(=O)CNC(=O)[C@H](CCCCN)NC(=O)[C@H](CO)NC(=O)[C@H](CCCNC(=N)N)NC(=O)[C@@H]2CCCN2C1=O` [Compound 22]: the DC50 worked out at 18 nM.

Turning to `CCCCCCCCCCCCCCCC(=O)NCCCCCC(=O)NCCCC[C@@H]1NC(=O)[C@H]([C@@H](C)CC)NC(=O)[C@@H](NC(=O)[C@@H]2CCCN2C(=O)[C@H](Cc2ccccc2)NC(=O)[C@H](Cc2c[nH]cn2)NC(=O)[C@@H](NC(=O)[C@H](CC(=O)O)NC(=O)CC(C)C)[C@@H](C)O)CSSC[C@@H](C(=O)N[C@@H](CCCCN)C(N)=O)NC(=O)CN(C)C(=O)[C@H](CCCCN)NC(=O)[C@H](CO)NC(=O)[C@H](CCCNC(=N)N)NC(=O)[C@@H]2CCCN2C(=O)[C@H](CCC(=O)O)NC(=O)[C@H](Cc2ccccc2)NC1=O` [Compound 23, Isovaleric acid-DTHFPCI-[Lys(Ahx-Palm)]-FEPRSK-[Sar]-CK-NH2], the DC50 worked out at 6 nM.

As for `CCCCCCCCCCCCCCCC(=O)NCCCCCC(=O)NCCCC[C@@H]1NC(=O)[C@H](Cc2ccccc2)NC(=O)[C@H](CCCCN)NC(=O)[C@H]([C@@H](C)CC)NC(=O)[C@@H](NC(=O)[C@@H]2CCCN2C(=O)[C@H](Cc2ccccc2)NC(=O)[C@H](Cc2c[nH]cn2)NC(=O)[C@@H](NC(=O)[C@H](CC(=O)O)NC(=O)CC(C)C)[C@@H](C)O)CSSC[C@@H](C(=O)N[C@@H](CCCCN)C(N)=O)NC(=O)CN(C)C(=O)[C@H](CCCCN)NC(=O)[C@H](CO)NC(=O)[C@H](CCCNC(=N)N)NC(=O)[C@@H]2CCCN2C1=O` [Compound 24], the DC50 was 10 nM.

Take `CC[C@H](C)[C@@H]1NC(=O)[C@@H](NC(=O)[C@@H]2CCCN2C(=O)[C@H](Cc2ccccc2)NC(=O)[C@H](Cc2c[nH]cn2)NC(=O)[C@@H](NC(=O)[C@H](CC(=O)O)NC(=O)CC(C)C)[C@@H](C)O)CSSC[C@@H](C(=O)N[C@@H](CCCCN)C(N)=O)NC(=O)CNC(=O)[C@H](CCCCN)NC(=O)[C@H](CO)NC(=O)[C@H](CCCNC(=N)N)NC(=O)[C@@H]2CCCN2C(=O)[C@H](CCCCNC(C)=O)NC(=O)[C@H](Cc2ccccc2)NC(=O)[C@H](CCCCN)NC1=O` [Compound 25]: the DC50 came to 14 nM.

Take `CCCCCCCCCCCCCCCC(=O)NCCCCCC(=O)N[C@@H](CCC(=O)NCCCC[C@@H]1NC(=O)[C@H]([C@@H](C)CC)NC(=O)[C@@H](NC(=O)[C@@H]2CCCN2C(=O)[C@H](Cc2ccccc2)NC(=O)[C@H](Cc2c[nH]cn2)NC(=O)[C@@H](NC(=O)[C@H](CC(=O)O)NC(=O)CC(C)C)[C@@H](C)O)CSSC[C@@H](C(=O)N[C@@H](CCCCN)C(N)=O)NC(=O)CN(C)C(=O)[C@H](CCCCN)NC(=O)[C@H](CO)NC(=O)[C@H](CCCNC(=N)N)NC(=O)[C@@H]2CCCN2C(=O)[C@H](CCC(=O)O)NC(=O)[C@H](Cc2ccccc2)NC1=O)C(=O)O` [Compound 28, Isovaleric acid-DTHFPCI-[Lys(isoGlu-Ahx-Palm)]-FEPRSK-[Sar]-CK-NH2]: the DC50 stood at 23 nM.

Staying with this assay, now noted: Table 9 reference compounds; ferroportin degradation; read-out: Potency EC50.
On to `CC[C@H](C)[C@H](NC(=O)[C@H](CS)NC(=O)[C@@H](NC(=O)[C@@H]1CCCN1C(=O)[C@H](Cc1ccccc1)NC(=O)[C@H](Cc1c[nH]cn1)NC(=O)[C@@H](NC(=O)[C@@H](N)CC(=O)O)[C@@H](C)O)[C@@H](C)CC)C(=O)N[C@@H](Cc1ccccc1)C(N)=O` [Mini-Hepcidin 1-9, reference compound], for which the EC50 was determined as 712 nM.

Staying with this assay, now noted: Table 9 reference compounds; read-out: Potency EC50.
Turning to `CC[C@@H](C)[C@@H](NC(=O)[C@H](N)Cc1ccccc1)C(=O)N[C@H](CS)C(=O)N[C@@H](C(=O)N1CCC[C@@H]1C(=O)N[C@H](Cc1ccccc1)C(=O)N[C@H](Cc1c[nH]cn1)C(=O)N[C@@H](C(=O)N[C@H](CC(=O)O)C(N)=O)[C@H](C)O)[C@H](C)CC` [RI-Mini Hepcidin, Hy-DPhe-DIle-DCys-DIle-DPro-DPhe-DHis-DThr-DAsp-NH2, reference compound], the DC50 is above 10000 nM.

Source of the values: patent publication US11472842B2 (Protagonist Therapeutics, Inc., priority 2015, dated 2022).
